Laboratory results: ChEMBL document CHEMBL5236579, “Hydrophobicity Determines the Bacterial Killing Rate of α-Helical Antimicrobial Peptides and Influences the Bacterial Resistance Development” (J Med Chem, 2022)
In brackets after ≈: the same amount, converted by molar mass. Activity calls are given as the source filed them. No cut-off for these calls is given here. Where a SMILES comes first, the peptide text is derived from it.

What was measured:
[1] = test system: Cell membrane; assay: Induction of outer membrane permeabilization in Vibrio parahaemolyticus ATCC17802 assessed as increase fluorescence intensity at 0.5 to 2 times of MIC by NPN uptake assay; type: cell membranes; details: time <= 15.0 min, TDE = time-dependent effect
[2] = test system: Cell membrane; assay: Induction of inner membrane permeabilization in Vibrio parahaemolyticus ATCC17802 assessed as increase in PI fluorescence intensity at 5 times MIC by propidium iodide penetration assay; type: cell membranes; details: time <= 200.0 min
[3] = test system: Cell membrane; assay: Induction of outer membrane permeabilization in Escherichia coli ATCC25722 assessed as increase fluorescence intensity at 0.5 to 2 times of MIC by NPN uptake assay; type: cell membranes; details: time <= 15.0 min, TDE = time-dependent effect
[4] = test system: Escherichia coli; assay: In vivo antibacterial activity against Escherichia coli ATCC25722 infected in Balb/c mouse model assessed as reduction in bacterial CFU count on skin at 20 ug/ml incubated for 6 hrs post infection and measured after 2 hrs post compound treatment; type: functional, organism-based; details: dose 20.0 µg/ml, time 8.0 hrs
[5] = test system: Peritoneal macrophage; assay: Cytotoxicity against mouse peritoneal macrophage cells incubated for 48 hrs by MTT assay; type: toxicity, cell-based; details: dose < 250 µg/ml
[6] = Effect on morphological changes in POPC/POPG (3:1) bilayer membrane assessed as formation of bulge aggregates by measuring the height of bulges at 2 ug/ml incubated for 40 mins under neutral pH and low ionic strength by atomic force microscopic analysis; type: cell membranes; details: Cell membrane, dose 2.0 µg/ml
[7] = test system: HaCaT; assay: Cytotoxicity against human HaCaT cells incubated for 48 hrs by MTT assay; type: toxicity, cell-based; details: dose < 250 µg/ml
[8] = test system: Staphylococcus aureus; assay: Antimicrobial activity against clinical isolates Staphylococcus aureus by two fold broth microdilution method; type: functional
[9] = test system: Cell membrane; assay: Induction of outer membrane permeabilization in Vibrio parahaemolyticus ATCC17802 assessed as increase fluorescence intensity measured upto 15 mins by NPN uptake assay; type: cell membranes
[10] = test system: Vibrio parahaemolyticus; assay: Induction of morphological changes in Vibrio parahaemolyticus ATCC17802 assessed as surface fibrosis incubated at 5 times MIC and measured after 60 mins by scanning electron microscopy based analysis; type: functional, organism-based
[11] = test system: Lipopolysaccharide (LPS); assay: Binding affinity to Escherichia coli LPS assessed as dissociation constant measured upto 600 sec by surface plasmon resonance imaging method
[12] = test system: Cell membrane; assay: Induction of cytoplasmic membrane permeabilization in Vibrio parahaemolyticus […] assessed as calcein transmembrane diffusion into interior of gaint unilamellar vesicles by measuring time to equilibrium between inside and outside of vesicles at 2 ug/mL by confocal microscopy based calcein-AM leakage assay; type: cell membranes; details: dose 2.0 µg/ml
[13] = test system: Lipopolysaccharide (LPS); assay: Binding affinity to Escherichia coli LPS assessed as LPS neutralizing activity measured after 5 mins by LPS neutralization assay
[14] = test system: Cell membrane; assay: Binding affinity to Vibrio parahaemolyticus ATCC17802 cell membrane assessed as increase in fluorescence intensity measured after 120 mins by flow cytometry analysis (reference value: 1.88%); type: cell membranes
[15] = test system: Escherichia coli; assay: In vivo antibacterial activity against Escherichia coli ATCC25722 infected in Balb/c mouse model assessed as reduction in bacterial CFU count on skin at 20 ug/ml applied 4 hrs after infection and measured after 120 mins; type: functional, organism-based; details: dose 20.0 µg/ml
[16] = test system: Vibrio parahaemolyticus; assay: Induction of morphological changes in Vibrio parahaemolyticus ATCC17802 assessed as massive cell collapse incubated at 5 times MIC and measured after 60 mins by scanning electron microscopy based analysis; type: functional, organism-based
[17] = Hemolytic activity in human erythrocytes measured after 30 mins; type: toxicity, cell-based; details: erythrocyte, 0.5 h
[18] = test system: Vibrio parahaemolyticus; assay: Antimicrobial activity against Vibrio parahaemolyticus ATCC17802 by two fold broth microdilution method; type: functional
[19] = test system: Vibrio parahaemolyticus; assay: Induction of morphological changes in Vibrio parahaemolyticus ATCC17802 assessed as cellular inclusion leakage incubated at 5 times MIC and measured after 60 mins by scanning electron microscopy based analysis; type: functional, organism-based
[20] = test system: Bacillus cereus; assay: Antimicrobial activity against clinical isolates Bacillus cereus by two fold broth microdilution method; type: functional
[21] = test system: Vibrio parahaemolyticus; assay: Bactericidal activity against Vibrio parahaemolyticus ATCC17802 assessed as killing rate at 0.5 X MIC by measuring time limit of detection by bacterial killing kinetic assay; type: functional
[22] = test system: Cell membrane; assay: Induction of outer membrane permeabilization in Escherichia coli ATCC25722 assessed as increase fluorescence intensity measured upto 15 mins by NPN uptake assay; type: cell membranes
[23] = test system: Escherichia coli; assay: Antimicrobial activity against Escherichia coli ATCC27622 by two fold broth microdilution method; type: functional
[24] = test system: Cell membrane; assay: Induction of inner membrane permeabilization in Vibrio parahaemolyticus ATCC17802 assessed as calcein leakage at 5 times MIC by calcein-AM leakage assay; type: cell membranes; details: time <= 200.0 min, TDE = time-dependent effect
[25] = test system: Staphylococcus aureus; assay: Antimicrobial activity against Staphylococcus aureus ATCC25923 by two fold broth microdilution method; type: functional; details: read-out: MIC
[26] = test system: Cell membrane; assay: Binding affinity to Vibrio parahaemolyticus ATCC17802 cell membrane assessed as increase in fluorescence intensity measured after 30 mins by flow cytometry analysis (reference value: 1.85%); type: cell membranes
[27] = test system: Vibrio parahaemolyticus; assay: Induction of bacterial resistance in Vibrio parahaemolyticus ATCC17802 assessed as fold increase in MIC treated over 30 serial passages measured after 24 hrs; type: functional
[28] = test system: Cell membrane; assay: Induction of inner membrane permeabilization in Vibrio parahaemolyticus ATCC17802 at 5 times MIC measured upto 200 mins by propidium iodide penetration assay; type: cell membranes
[29] = test system: Vibrio parahaemolyticus; assay: Induction of morphological changes in Vibrio parahaemolyticus ATCC17802 assessed as surface fibrosis incubated at 5 times MIC and measured after 180 mins by scanning electron microscopy based analysis; type: functional, organism-based
[30] = test system: Vibrio parahaemolyticus; assay: Induction of morphological changes in Vibrio parahaemolyticus ATCC17802 assessed as cellular inclusion leakage incubated at 5 times MIC and measured after 180 mins by scanning electron microscopy based analysis; type: functional, organism-based
[31] = test system: Vibrio parahaemolyticus; assay: Induction of morphological changes in Vibrio parahaemolyticus ATCC17802 assessed as massive cell collapse incubated at 5 times MIC and measured after 180 mins by scanning electron microscopy based analysis; type: functional, organism-based
[32] = test system: Lipopolysaccharide (LPS); assay: Binding affinity to Escherichia coli LPS assessed as LPS neutralizing activity measured after 60 mins by LPS neutralization assay

SMILES	Activity [1]	Activity [2]	Activity [3]	Activity [4]	Activity [5]	Activity [6] [nm]	Activity [7]	MIC [8] [µg/mL]	Activity [9]	Kd [11] [µM]	TIME [12] [h]	Activity [13]	Activity [14] [%]	Activity [15]	Activity [17]	MIC [18] [µg/mL]	MIC [20] [µg/mL]	Time [21] [min]	Activity [22]	MIC [23] [µg/mL]	also measured
CC[C@H](C)[C@H](NC(=O)[C@H](CC(C)C)NC(=O)[C@H](CCCNC(=N)N)NC(=O)[C@H](CC(C)C)NC(=O)[C@H](CC(C)C)NC(=O)[C@H](CCCCN)NC(=O)[C@H](CCCCN)NC(=O)[C@H](Cc1ccccc1)NC(=O)[C@H](CC(C)C)NC(=O)CNC(=O)[C@@H](N)CC(C)C)C(=O)N[C@@H](CCCCN)C(=O)N[C@@H](CCCCN)C(=O)NCC(=O)N[C@@H](Cc1ccccc1)C(=O)N[C@@H](CCCCN)C(=O)N[C@@H](CCCCN)C(=O)O (H-LGLFKKLLRLIKKGFKK-OH)	Tde	Active	Tde	Active	Dose-Dependent Effect	1	Dose-Dependent Effect	18.8 (≈ 9.23 µM)	Dose-Dependent Effect	49.4	< 0.25	inactive	99.4	Active	Toxic	4.69 (≈ 2.31 µM)	4.69 (≈ 2.31 µM)	60	Dose-Dependent Effect	9.38 (≈ 4.62 µM)	Activity [10]: Active; Activity [16]: Active; Activity [19]: Active; Activity [24]: Tde; MIC [25]: 2.34 µg/mL (≈ 1.15 µM); Activity [26]: 64.3%; fold change (FC) [27]: 2; Activity [28]: Active
CC[C@H](C)[C@H](NC(=O)[C@H](CCCCN)NC(=O)[C@H](CCCNC(=N)N)NC(=O)[C@H](CC(C)C)NC(=O)[C@H](CC(C)C)NC(=O)[C@H](CCCCN)NC(=O)[C@H](CCCCN)NC(=O)[C@H](Cc1ccccc1)NC(=O)[C@H](CC(C)C)NC(=O)CNC(=O)[C@@H](N)CCCNC(=N)N)C(=O)N[C@@H](CCCCN)C(=O)N[C@@H](CCCCN)C(=O)NCC(=O)N[C@@H](Cc1ccccc1)C(=O)N[C@@H](CCCCN)C(=O)N[C@@H](CCCCN)C(=O)O (H-RGLFKKLLRKIKKGFKK-OH)	Tde	Active	Tde	Active	Dose-Dependent Effect	1	Dose-Dependent Effect	18.8 (≈ 8.98 µM)	Dose-Dependent Effect	23.5	1	inactive	99.5	inactive	Toxic	4.69 (≈ 2.25 µM)	9.38 (≈ 4.49 µM)	120	Dose-Dependent Effect	4.69 (≈ 2.25 µM)	Activity [29]: Active; Activity [30]: Active; Activity [31]: Active; Activity [32]: Active; MIC [25]: 2.34 µg/mL (≈ 1.12 µM); Activity [26]: 20.6%; fold change (FC) [27]: 16; Activity [28]: Active
